From the supplement of paper PMC10307832

Key:
Experiment in all cases: relative viability (nuclei count vs DMSO), 5 days (fraction); higher = more cells survive
[1] = tested on: NCI-H520
Method in brief: (§1)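 Relative viability was taken as the ratio of nuclei in treated wells to nuclei in vehicle wells. Lung cancer cell lines in 1536-well plates received compounds by pin tool one day after seeding, either one drug alone or a fixed anchor-drug dose plus five library-drug doses (not always all listed) in √10 steps. Nuclei were counted on 4× images after 5 days of treatment, and values are medians of duplicate plates.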

[2] = tested on: EKVX
Method in brief: as §1

[3] = tested on: HCC-827
Method in brief: as §1

[4] = tested on: SW 1573
Method in brief: as §1

[5] = tested on: RERF-LC-KJ
Method in brief: as §1

[6] = tested on: NCI-H322M
Method in brief: as §1

[7] = tested on: NCI-H2405
Method in brief: as §1

[8] = tested on: NCI-H1355
Method in brief: as §1

[9] = tested on: ABC-1
Method in brief: as §1

[10] = tested on: NCI-H1437
Method in brief: as §1

[11] = tested on: H3255
Method in brief: as §1

[12] = tested on: NCI-H2228
Method in brief: as §1

[13] = tested on: LK-2
Method in brief: as §1

[14] = tested on: PC-3 [JPC-3]
Method in brief: as §1

[15] = tested on: HCC-15
Method in brief: as §1

[16] = tested on: NCI-H1650
Method in brief: as §1

[17] = tested on: NCI-H2342
Method in brief: as §1

[18] = tested on: NCI-H661
Method in brief: as §1

[19] = tested on: COR-L23
Method in brief: as §1

[20] = tested on: NCI-H1734
Method in brief: as §1

[21] = tested on: CAL-12T
Method in brief: as §1

[22] = tested on: PC-14
Method in brief: as §1

`C=C1C(=O)O[C@@H](CCCCCCCC)[C@@H]1C(=O)O` [C-75] + Cc1cc(Nc2cc(N3CCN(C)CC3)nc(Sc3ccc(NC(=O)C4CC4)cc3)n2)n[nH]1 [Tozasertib] (partner 0.1 µM) gave a relative viability ([1]; first compound 0.08 µM) of 0.428, a relative viability ([1]; first compound 0.253 µM) of 0.393 and a relative viability ([1]; first compound 0.8 µM) of 0.395. For the same compound, the relative viability ([1]; first compound 2.53 µM) was 0.295, the relative viability ([1]; first compound 8 µM) was 0.46 and the relative viability ([2]; first compound 0.08 µM) was 0.42. The relative viability ([2]; first compound 0.253 µM) was 0.56, the relative viability ([2]; first compound 0.8 µM) was 0.406 and the relative viability ([2]; first compound 8 µM) was 0.382. For the same compound, the relative viability ([3]; first compound 0.08 µM) was 0.428, the relative viability ([3]; first compound 0.253 µM) was 0.413 and the relative viability ([3]; first compound 0.8 µM) was 0.431. It also gave a relative viability ([3]; first compound 2.53 µM) of 0.379, a relative viability ([3]; first compound 8 µM) of 0.411 and a relative viability ([4]; first compound 0.08 µM) of 0.268. It also gave a relative viability ([4]; first compound 0.253 µM) of 0.161, a relative viability ([4]; first compound 0.8 µM) of 0.189 and a relative viability ([4]; first compound 2.53 µM) of 0.215. It also gave a relative viability ([4]; first compound 8 µM) of 0.184, a relative viability ([5]; first compound 0.08 µM) of 0.561 and a relative viability ([5]; first compound 0.253 µM) of 0.568. For the same compound, the relative viability ([5]; first compound 0.8 µM) was 0.557, the relative viability ([5]; first compound 2.53 µM) was 0.493 and the relative viability ([5]; first compound 8 µM) was 0.536. For the same compound, the relative viability ([6]; first compound 0.08 µM) was 0.46, the relative viability ([6]; first compound 0.253 µM) was 0.453 and the relative viability ([6]; first compound 0.8 µM) was 0.458. The relative viability ([6]; first compound 2.53 µM) was 0.302, the relative viability ([6]; first compound 8 µM) was 0.487 and the relative viability ([7]; first compound 0.08 µM) was 0.747. For the same compound, the relative viability ([7]; first compound 0.253 µM) was 0.683, the relative viability ([7]; first compound 0.8 µM) was 0.756 and the relative viability ([7]; first compound 2.53 µM) was 0.772. The relative viability ([7]; first compound 8 µM) was 0.81, the relative viability ([8]; first compound 0.08 µM) was 0.595 and the relative viability ([8]; first compound 0.253 µM) was 0.579. It also gave a relative viability ([8]; first compound 0.8 µM) of 0.522, a relative viability ([8]; first compound 2.53 µM) of 0.554 and a relative viability ([8]; first compound 8 µM) of 0.517. The relative viability ([9]; first compound 0.08 µM) was 0.137, the relative viability ([9]; first compound 0.253 µM) was 0.163 and the relative viability ([9]; first compound 0.8 µM) was 0.198. The relative viability ([9]; first compound 2.53 µM) was 0.173, the relative viability ([9]; first compound 8 µM) was 0.183 and the relative viability ([10]; first compound 0.08 µM) was 0.387. For the same compound, the relative viability ([10]; first compound 0.253 µM) was 0.462, the relative viability ([10]; first compound 0.8 µM) was 0.442 and the relative viability ([10]; first compound 2.53 µM) was 0.355. The relative viability ([10]; first compound 8 µM) was 0.437, the relative viability ([11]; first compound 0.08 µM) was 0.609 and the relative viability ([11]; first compound 0.253 µM) was 0.856. The relative viability ([11]; first compound 0.8 µM) was 0.505, the relative viability ([11]; first compound 2.53 µM) was 0.701 and the relative viability ([11]; first compound 8 µM) was 0.751. It also gave a relative viability ([12]; first compound 0.08 µM) of 0.29, a relative viability ([12]; first compound 0.253 µM) of 0.344 and a relative viability ([12]; first compound 0.8 µM) of 0.26. The relative viability ([12]; first compound 2.53 µM) was 0.25, the relative viability ([12]; first compound 8 µM) was 0.269 and the relative viability ([13]; first compound 0.08 µM) was 0.214. The relative viability ([13]; first compound 0.253 µM) was 0.157, the relative viability ([13]; first compound 0.8 µM) was 0.195 and the relative viability ([13]; first compound 2.53 µM) was 0.155. For the same compound, the relative viability ([13]; first compound 8 µM) was 0.19, the relative viability ([14]; first compound 0.08 µM) was 0.902 and the relative viability ([14]; first compound 0.253 µM) was 0.921. For the same compound, the relative viability ([14]; first compound 0.8 µM) was 0.896, the relative viability ([14]; first compound 2.53 µM) was 0.858 and the relative viability ([14]; first compound 8 µM) was 0.992. For the same compound, the relative viability ([15]; first compound 0.08 µM) was 0.457, the relative viability ([15]; first compound 0.253 µM) was 0.608 and the relative viability ([15]; first compound 0.8 µM) was 0.407. It also gave a relative viability ([15]; first compound 2.53 µM) of 0.427, a relative viability ([15]; first compound 8 µM) of 0.39 and a relative viability ([16]; first compound 0.08 µM) of 0.413. It also gave a relative viability ([16]; first compound 0.253 µM) of 0.647, a relative viability ([16]; first compound 2.53 µM) of 0.422 and a relative viability ([16]; first compound 8 µM) of 0.38. For the same compound, the relative viability ([17]; first compound 0.08 µM) was 0.652, the relative viability ([17]; first compound 0.253 µM) was 0.503 and the relative viability ([17]; first compound 0.8 µM) was 0.604. For the same compound, the relative viability ([17]; first compound 2.53 µM) was 0.496, the relative viability ([17]; first compound 8 µM) was 0.472 and the relative viability ([18]; first compound 0.08 µM) was 0.355. The relative viability ([18]; first compound 0.253 µM) was 0.347, the relative viability ([18]; first compound 0.8 µM) was 0.334 and the relative viability ([18]; first compound 2.53 µM) was 0.288. It also gave a relative viability ([18]; first compound 8 µM) of 0.339, a relative viability ([19]; first compound 0.08 µM) of 0.232 and a relative viability ([19]; first compound 0.253 µM) of 0.267. It also gave a relative viability ([19]; first compound 0.8 µM) of 0.209, a relative viability ([19]; first compound 2.53 µM) of 0.172 and a relative viability ([19]; first compound 8 µM) of 0.179. For the same compound, the relative viability ([20]; first compound 0.08 µM) was 0.286, the relative viability ([20]; first compound 0.253 µM) was 0.225 and the relative viability ([20]; first compound 0.8 µM) was 0.262. It also gave a relative viability ([20]; first compound 2.53 µM) of 0.198, a relative viability ([20]; first compound 8 µM) of 0.235 and a relative viability ([21]; first compound 0.08 µM) of 0.281. The relative viability ([21]; first compound 0.253 µM) was 0.423, the relative viability ([21]; first compound 0.8 µM) was 0.312 and the relative viability ([21]; first compound 2.53 µM) was 0.281. It also gave a relative viability ([21]; first compound 8 µM) of 0.345, a relative viability ([22]; first compound 0.08 µM) of 0.597 and a relative viability ([22]; first compound 0.253 µM) of 0.479. For the same compound, the relative viability ([22]; first compound 0.8 µM) was 0.548, the relative viability ([22]; first compound 2.53 µM) was 0.544 and the relative viability ([22]; first compound 8 µM) was 0.578.
